From patent publication US10307383B2, “Cosmetic composition for preventing or ameliorating hypersensitive skin comprising cedrol or derivatives thereof, or pharmaceutically acceptable salts thereof” (University of Seoul Industry Cooperation Foundation, priority 2017, dated 2019) come the findings set out here.

Type in all cases: in vivo, Balb/c mouse
Assay [1] deals with IL-17A expression in the spleen. In words: Inhibition of IL-17A expression in the spleen of the psoriasis induced mice (real-time PCR). To be noted: 100 mg/kg oral, IMQ applied; for IL-17A expression value in the spleen (non-treated control group regarded as value 1): real-time PCR, IMQ alone 54.9±5.5. How it is done:
(§1) To investigate the delayed effect of cedrol, cedryl acetate, and alpha-cedrene on the development of psoriasis, total 5 groups of mice were prepared (8 mice/group). First, the hair of the entire back of the 8-week-old male Balb/c mouse whose immune system was weakened was removed by using a hair clipper (Kimlaube Hair pen 325,327, Rikei, Korea). In the middle of the shaved back of the mouse, 2 mg of imiquimod (3M Health Care Limited, England) was applied in the area of 2 cm×1.5 cm and also 1,125 mg of imiquimod was applied on the right ear of the mouse every day once a day to induce psoriasis.
(§2) The mice prepared above were divided into the distilled water treated group (IMQ), the cedrol treated group (C), the cedryl acetate treated group (CA), and the alpha-cedrene treated group (CE). At this time, the mice were orally treated with distilled water at the concentration of 200 μl/mouse and cedrol or its derivatives at the concentration of 200 μl/mouse (100 mg/kg). The day when distilled water or the compound administration started was recorded as day 0 and the administration was performed once a day for a week, during which photo-recording was performed every day (FIGS. 2A˜2D). In the meantime, instead of applying imiquimod, 40 mg of vaseline was applied on the back of the control group (CONT) and 22.5 mg of vaseline was applied on the right ear of the control group. And the control group was orally administered with distilled water (200 μl/mouse).
The inhibition of IL-17A expression in the spleen of the psoriasis Induced mice according to the oral administration of cedrol, cedryl acetate, and alpha-cedrene was investigated by real-time PCR (polymerase chain reaction).
Particularly, the spleen was extracted from the psoriasis Induced mice orally administered with cedrol, cedryl acetate, and alpha-cedrene of Example <2-1>. Total RNA was extracted from the spleen by the conventional method. To synthesize cDNA, 2 μg of RNA was loaded in 9 μl of DEPC (RNase free water), indicating the dilution of the concentration. 1 μl of oligo dT was added thereto, followed by reaction at 70° C. for 10 minutes. The sample was treated on ice for 5 minutes, to which 2 μl of 10× reaction buffer, 2 μl of dNTP (10 mM each), 1 μl of M-MLV reverse transcriptase, and 5 μl of DNase free water were added to make the total volume of the reaction mixture 20 μl. The mixture was reacted at 42° C. for 1 hour to synthesize cDNA. The reaction mixture was heated at 72° C. for 10 minutes to remove the reverse transcriptase activity. Then, the reaction mixture was stored at −20° C. Real-time PCR was performed by using AMPIGENE qPCR 1-Step Green Kit (Enzo Life Sciences Inc, USA). […]

The test system of assay [2] is psoriasis induced mice (imiquimod). In words: Skin thickness of the psoriasis induced mice (hematoxylin and eosin staining). The following applies: day 7, 100 mg/kg oral; for skin thickness: IMQ applied, control 1,045, IMQ alone 1,181; for skin thickness, % inhibition: versus IMQ alone. How it is done:
as §1, §2
The skin of the psoriasis induced mice orally administered with cedrol, cedryl acetate, and alpha-cedrene of Example <2-1> was stained with hematoxyline and eosine in order to compare the skin thickness.
Particularly, the psoriasis induced mice of Example <2-1> were sacrificed with CO2, from which 1 cm×1 cm portions of the back surface were obtained and placed in PBS. The tissues washed with PBS were loaded in 10% formalin, followed by fixing at room temperature for a day. The fixed tissues were washed with PBS once, followed by dehydration with 25% methanol, 50% methanol, 75% methanol, and 100% methanol for 30 minutes each. Further dehydration of those tissues was additionally performed with 100% ethanol twice for 30 minutes each; with the mixed solution comprising ethanol and xylene (1:1) for 30 minutes, and with 100% xylene twice for 30 minutes each. 4 hours before washing, the modular tissue embedding center (LEICA EG 1150H, Leica, Germany) was turned on and paraplast plus (Sigma Aldrich, Korea) was melted at 60° C., followed by washing the paraffin. The tissues were loaded in a bottle, to which the melted paraffin was poured in, followed by washing in a 60° C. warm chamber twice for one hour each. The xylene-free tissues were placed in the paraffin solution, followed by reaction in the warm chamber for a day. The tissue sections were then placed on a Peel-A-Way embedding mold (Polysciences, Taiwan) and the paraffin solution was filled to half of the mold. The tissue sections were placed on top of the Peel-A-Way embedding mold, followed by fixing. An embedding ring (Thomas Scientific, USA) was placed on the mold, which was treated with the paraffin solution to solidify the mold and the ring at 4° C. for 3 hours, followed by reaction at 4° C. for a day. The embedded tissues can be semipermanently stored at 4° C. The embedded tissues were cut by using a semi-motorized rotary microtome (LEICA RM2145 Microtome, Leica, Germany), which were suspended in a 37° C. water bath to spread the paraffin wrinkles. The straightened wrinkles were collected by using a micro silane coating slide (Muto Pure Chemicals, Japan), which were dried at 37° C. for a day. When the tissues were completely dried, they were treated with xylene twice for 5 minutes each in order to eliminate the paraffin remaining in the tissues. The tissues were further washed with the mixed solution comprising ethanol and xylene (1:1), 100% ethanol, 100% methanol, 75% methanol, and 50% methanol for 2 minutes each to stain the tissues easily. […]

Assay [3] shares this test system. In words: Recovery effect on skin wrinkles of the psoriasis induced mice. How it is done: Imiquimod was applied to the psoriasis induced mice which had developed psoriasis for a week in Example <2-1>. The application was stopped 8 days after the application began. The groups CON and IMQ were treated with distilled water, the group C was treated with cedrol, the group CA was treated with cedryl acetate, the group CE was treated with alpha-cedrene alone at the concentration of 100 mg/kg in 200 μl, every day via oral-administration. Day 8 was the day the imiquimod application was stopped, since then the compounds were administered for 1 week once a day, during which photo-recording was performed (FIGS. 13A˜13D).
The psoriasis induced mice orally administered with cedrol, cedryl acetate, and alpha-cedrene of Example <3-1> were observed by the naked eye, and the number of mice showing the recovery of skin wrinkles was counted.

Setting [4] is: day 8, 100 mg/kg oral, 8 mice/group.
Where [5] appears, read: day 16, 100 mg/kg oral after termination of imiquimod.

As for `CC1=CC[C@@]23C[C@@H]1C(C)(C)[C@@H]2CC[C@H]3C` [alpha-cedrene, Alpha-cedrene], in assay [1], the “IL-17A expression inhibition effect in the spleen, comparison in words” value is on record as “strongest inhibition effect” and the “IL-17A expression value in the spleen (non-treated control group regarded as value 1)” value is 31.0±3.1. For the same compound, in assay [2], the skin thickness turned out to be 954 μm and the “skin thickness, % inhibition” value came to 19.2 % inhibition. For the same compound, in assay [3] (setting [4]), the “number of mice showing skin wrinkles” value is listed as 3 mice. Further, the “number of mice showing skin wrinkles” value in assay [3] (setting [5]) is “no mouse”.

Regarding `CC(=O)O[C@]1(C)CC[C@@]23C[C@@H]1C(C)(C)[C@@H]2CC[C@H]3C` [cedryl acetate, Cedryl acetate], the “IL-17A expression value in the spleen (non-treated control group regarded as value 1)” value in assay [1] was found to be 7.4±0.7. In assay [2], the skin thickness turned out to be 999 μm and the “skin thickness, % inhibition” value is 15.3 % inhibition. Further, the “number of mice showing skin wrinkles” value in assay [3] (setting [4]) was 3 mice. In addition, the “number of mice showing skin wrinkles” value in assay [3] (setting [5]) is given as “no mouse”.

For `C[C@@H]1CC[C@H]2C(C)(C)[C@H]3C[C@@]12CC[C@@]3(C)O` [cedrol, Cedrol], the “IL-17A expression value in the spleen (non-treated control group regarded as value 1)” value in assay [1] is reported as 1.1±0.1. Also, in assay [2], the skin thickness was 954 μm and the “skin thickness, % inhibition” value was 19.2 % inhibition. In addition, the “skin wrinkle recovery effect, comparison in words” value in assay [3] (100 mg/kg oral after termination of imiquimod) is “strongest recovery effect”. In assay [3] (after day 15, 100 mg/kg oral after termination of imiquimod), the “number of mice showing skin wrinkles” value was “no mouse”. Moreover, the “number of mice showing skin wrinkles” value in assay [3] (setting [4]) is 5 mice.
